Assay results as given in patent US11173149B2, “Inhibition of protein disulfide-isomerase A3” (Romark Laboratories L.C., priority 2017, dated 2021).

What was measured:
[1] = biological target: T1, recombinant human PDIA3 (Homo sapiens, UniProt P30101); assay: Disulfide reductase activity assay with Di-E-GSSG substrate; assay type: biochemical
T1 construct: full-length recombinant human PDIA3 (rhPDIA3, Abcam); purchased Abcam
T1 sequence (P30101 25-505): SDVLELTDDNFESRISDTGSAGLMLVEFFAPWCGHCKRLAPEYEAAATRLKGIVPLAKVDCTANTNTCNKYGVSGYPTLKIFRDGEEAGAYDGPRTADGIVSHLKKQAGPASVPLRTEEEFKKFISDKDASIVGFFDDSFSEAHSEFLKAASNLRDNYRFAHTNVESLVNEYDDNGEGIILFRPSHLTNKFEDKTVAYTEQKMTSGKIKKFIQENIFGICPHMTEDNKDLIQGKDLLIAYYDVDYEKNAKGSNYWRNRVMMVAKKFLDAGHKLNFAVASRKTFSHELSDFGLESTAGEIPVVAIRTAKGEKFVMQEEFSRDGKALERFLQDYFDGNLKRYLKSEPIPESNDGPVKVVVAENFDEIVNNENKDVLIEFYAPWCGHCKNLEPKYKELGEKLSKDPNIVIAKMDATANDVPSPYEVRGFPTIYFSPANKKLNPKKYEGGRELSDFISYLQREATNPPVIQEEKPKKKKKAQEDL
Experimental: PDIA3 activity was determined by enzyme-dependent disulfide reduction assay. The disulfide reductase activity was tested in vitro using dieosin glutathione disulfide (Di-E-GSSG) as substrate. Recombinant human PDIA3 (rhPDIA3) (2 nM), pre-incubated with different concentrations of TIZ or control diluent (DMSO) for 10 min. at room temperature, was added to Di-E-GSSG (150 nM) in the presence of 5 μM DTT (arrow). PDIA3 reductase activity cleaves the S—S bond of Di-E-GSSG resulting in the release of fluorescent 2-eosin-GSH (EGSH). The increase in fluorescence was monitored at λ=545 nm with excitation at λ=525 nm, and expressed as relative fluorescence units (RFU).
FIG. 4A-B show effect of TIZ on PDIA3 and PDIA1 disulfide reductase activity. Effect of TIZ (5 μg/ml) on PDIA3 and PDIA1 (PDI) activities were measured by Di-E-GSSG assay using the same concentration (20 nM) of PDIA3 or PDIA1.
Disulfide reductase (DR) activity of PDIA3 or protein disulfide isomerase (PDI) was monitored by sensitive fluorescent assay using dieosin glutathione disulfide (Di-E-GSSG) (Cayman Chemical) as a substrate. DR activity assay was performed in a reaction buffer (0.1 M potassium phosphate, pH 7.0; 2 mM EDTA) by adding 2 or 20 nM of full-length recombinant human PDIA3 (rhPDIA3, Abcam) or PDI (rhPDIA1, R&D Systems) to different concentrations of Di-E-GSSG in the presence of 5 μM DTT. The reductase activity of disulfide isomerases cleaves the S—S bond of Di-E-GSSG resulting in the release of fluorescent 2-eosin-GSH (EGSH). To test the effect of TIZ on PDIA3 and PDI reductase activity, recombinant human PDIA3 or PDIA1 were previously incubated for 10 min at room temperature with different concentrations of TIZ or control diluent (DMSO) in the reaction buffer, unless differently specified. The increase in fluorescence was monitored at λ=545 nm with excitation at λ=525 nm at 25° C. with continuous stirring, and expressed as relative fluorescence units (RFU).
Thiazolides inhibit PDIA3 disulfide isomerase activity. To investigate whether thiazolides may directly affect PDIA3 disulfide-isomerase activity, we performed a fluorescence-based reductase in vitro assay using purified full-length recombinant human PDIA3 and oxidized glutathione coupled to dieosin (Di-E-GSSG) as a substrate. NTZ's circulating active metabolite, TIZ, was utilized for these studies.
Recombinant human PDIA3 (rhPDIA3) (2 nM) was pre-incubated with different concentrations of TIZ or control diluent (DMSO) for 10 min. at room temperature. […] PDIA3 reductase activity cleaves the S—S bond of Di-E-GSSG resulting in the release of fluorescent 2-eosin-GSH (EGSH), that is measured in function of time by fluorimetry, as described in Materials and Methods. […]

[2] = tested on: PDIA3-HA protein-protein interaction; assay type: cell-based, canine
[3] = tested on: PR8 IAV HA transport to the plasma membrane; assay type: cell-based; conditions: NTZ 5 μg/ml after adsorption, A549 cells, PR8 5 PFU/cell, 6 h p.i.

SMILES: O=C(Nc1ncc([N+](=O)[O-])s1)c1ccccc1O [TIZ, tizoxanide]
- effect on PDIA3 versus human PDIA1 reductase activity ([1]; TIZ 5 μg/ml, PDIA3 or PDIA1 20 nM, preliminary experiment): preferentially inhibits PDIA3 reductase activity
- lowest TIZ concentration tested at which inhibitory activity was observed ([1]; rhPDIA3 2 nM, Di-E-GSSG 150 nM, 5 μM DTT): 1 µg/mL
- PDIA3 disulfide reductase activity (time-course of EGSH fluorescence) ([1]; rhPDIA3 2 nM, pre-incubated 10 min with different TIZ concentrations, Di-E-GSSG 150 nM, 5 μM DTT): inhibits PDIA3 activity in a dose-dependent manner

SMILES: CC(=O)Oc1ccccc1C(=O)Nc1ncc([N+](=O)[O-])s1 [NTZ, nitazoxanide]
- HA-PDIA3 interaction detected by PLA [2]: PDIA3 strongly interacts with HA forming large spots
- PDIA3 disulfide-isomerase activity in an in vitro assay (conclusion statement) [1]: directly inhibits PDIA3 disulfide-isomerase activity
- plasma membrane-incorporated HA (HA transport to the plasma membrane) [3]: inhibits PR8 IAV HA transport to the plasma membrane
